According to ChEMBL document CHEMBL4732259, “Imidazo[1,2-c]pyrimidin-5(6H)-one inhibitors of CDK2: Synthesis, kinase inhibition and co-crystal structure” (Eur J Med Chem, 2021):
Activity calls are given as the source filed them. The rule behind the calls is not given here.

Experiments:
MV4-11 [1] = assay: Antiproliferative activity against human MV4-11 cells assessed as cell viability at 10 uM incubated for 72 hrs by resazurin assay; type: functional; settings: read-out: Activity
[2] = target: T1, Cyclin-dependent kinase 2/cyclin E1 (Homo sapiens, UniProt P24941); assay: Inhibition of CDK2/cyclin E (unknown origin) using peptide substrate in presence of [gamma33P]ATP by image analyser; type: protein-complex assay
K562 = assay: Antiproliferative activity against human K562 cells assessed as cell viability at 10 uM incubated for 72 hrs by resazurin assay; type: functional; settings: read-out: Activity
MOLM-13 [3] = assay: Antiproliferative activity against human MOLM-13 cells assessed as cell viability at 10 uM incubated for 72 hrs by resazurin assay; type: functional; settings: read-out: Activity
[4] = Inhibition of CDK3/cyclin A2 (unknown origin) using peptide substrate in presence of [gamma33P]ATP by image analyser; parameters: species or system Homo sapiens
[5] = target: Cyclin-dependent kinase 4/cyclin D1 (Homo sapiens, UniProt P11802); assay: Inhibition of CDK4/cyclin D1 (unknown origin) using peptide substrate in presence of [gamma33P]ATP by image analyser; type: protein-complex assay
Chain of Cyclin-dependent kinase 4/cyclin D1 (P11802 whole entry): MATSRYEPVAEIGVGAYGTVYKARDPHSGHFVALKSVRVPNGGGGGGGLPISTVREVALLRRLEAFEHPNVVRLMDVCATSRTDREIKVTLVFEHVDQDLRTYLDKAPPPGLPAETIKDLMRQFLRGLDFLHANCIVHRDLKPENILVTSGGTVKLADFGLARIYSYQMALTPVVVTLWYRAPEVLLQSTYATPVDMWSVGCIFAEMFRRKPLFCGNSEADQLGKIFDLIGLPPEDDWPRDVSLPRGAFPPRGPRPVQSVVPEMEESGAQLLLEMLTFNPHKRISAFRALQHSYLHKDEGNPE
Chain of Cyclin-dependent kinase 4/cyclin D1 (P24385 whole entry, further chain): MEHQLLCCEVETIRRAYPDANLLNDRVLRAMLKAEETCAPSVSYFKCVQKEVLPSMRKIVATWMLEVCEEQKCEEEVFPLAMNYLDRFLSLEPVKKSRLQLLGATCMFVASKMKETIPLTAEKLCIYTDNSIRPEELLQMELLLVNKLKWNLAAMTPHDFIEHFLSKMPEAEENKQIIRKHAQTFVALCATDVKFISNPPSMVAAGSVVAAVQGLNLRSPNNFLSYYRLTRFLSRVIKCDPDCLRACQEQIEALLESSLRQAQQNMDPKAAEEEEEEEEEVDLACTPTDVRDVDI

CDK2/Cyclin A2 = CDK2/Cyclin A2 (Homo sapiens, UniProt P24941); assay: Inhibition of CDK2/cyclin A2 (unknown origin) using peptide substrate in presence of [gamma33P]ATP by image analyser; type: protein-complex assay
[6] = target: Cyclin-dependent kinase 1/cyclin B1 (Homo sapiens, UniProt P06493); assay: Inhibition of CDK1/cyclin B (unknown origin) using peptide substrate in presence of [gamma33P]ATP by image analyser; type: protein-complex assay
Chain of Cyclin-dependent kinase 1/cyclin B1 (P06493 whole entry): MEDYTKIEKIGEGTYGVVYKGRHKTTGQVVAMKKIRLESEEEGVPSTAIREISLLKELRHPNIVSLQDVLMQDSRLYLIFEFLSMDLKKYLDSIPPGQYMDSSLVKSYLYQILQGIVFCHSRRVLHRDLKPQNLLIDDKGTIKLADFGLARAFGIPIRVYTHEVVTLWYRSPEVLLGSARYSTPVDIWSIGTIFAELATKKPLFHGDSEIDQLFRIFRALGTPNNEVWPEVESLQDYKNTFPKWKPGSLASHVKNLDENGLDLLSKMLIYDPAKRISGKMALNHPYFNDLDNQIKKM
Chain of Cyclin-dependent kinase 1/cyclin B1 (P14635 whole entry, further chain): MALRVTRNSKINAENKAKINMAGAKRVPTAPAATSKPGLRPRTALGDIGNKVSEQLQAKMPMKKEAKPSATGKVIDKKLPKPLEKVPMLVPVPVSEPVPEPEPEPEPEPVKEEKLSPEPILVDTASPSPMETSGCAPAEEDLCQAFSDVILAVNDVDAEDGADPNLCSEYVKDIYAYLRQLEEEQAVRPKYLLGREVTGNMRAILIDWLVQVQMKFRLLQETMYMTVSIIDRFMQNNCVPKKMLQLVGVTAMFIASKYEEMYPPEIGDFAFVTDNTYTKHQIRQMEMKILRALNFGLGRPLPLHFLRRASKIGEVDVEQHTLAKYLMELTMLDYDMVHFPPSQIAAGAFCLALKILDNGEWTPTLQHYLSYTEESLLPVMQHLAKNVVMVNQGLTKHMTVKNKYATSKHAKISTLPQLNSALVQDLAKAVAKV

CDK9/cyclin T1 = CDK9/cyclin T1 (Homo sapiens, UniProt P50750); assay: Inhibition of CDK9/cyclin T1 (unknown origin) using peptide substrate in presence of [gamma33P]ATP by image analyser; type: protein-complex assay
Chain of CDK9/cyclin T1 (O60563 whole entry): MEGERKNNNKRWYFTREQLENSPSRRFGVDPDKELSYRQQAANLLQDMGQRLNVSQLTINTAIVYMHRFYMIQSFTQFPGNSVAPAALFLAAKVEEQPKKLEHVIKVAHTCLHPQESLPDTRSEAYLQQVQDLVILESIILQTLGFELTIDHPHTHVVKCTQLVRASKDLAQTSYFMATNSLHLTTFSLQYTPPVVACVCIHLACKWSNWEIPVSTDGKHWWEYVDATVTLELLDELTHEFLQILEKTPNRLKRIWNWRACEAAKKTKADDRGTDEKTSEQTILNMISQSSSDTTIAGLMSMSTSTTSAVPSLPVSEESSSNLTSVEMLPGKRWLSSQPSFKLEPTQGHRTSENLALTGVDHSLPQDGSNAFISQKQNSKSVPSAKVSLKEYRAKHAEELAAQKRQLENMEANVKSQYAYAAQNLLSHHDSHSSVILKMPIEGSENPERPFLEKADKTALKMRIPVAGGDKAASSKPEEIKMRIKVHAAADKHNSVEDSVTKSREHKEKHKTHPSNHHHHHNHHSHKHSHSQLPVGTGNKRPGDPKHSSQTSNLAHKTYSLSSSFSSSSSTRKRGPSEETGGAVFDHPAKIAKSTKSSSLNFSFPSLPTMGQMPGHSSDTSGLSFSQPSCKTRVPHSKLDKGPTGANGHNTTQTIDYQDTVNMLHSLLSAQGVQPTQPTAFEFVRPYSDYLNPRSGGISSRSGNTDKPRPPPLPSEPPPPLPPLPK
Chain of CDK9/cyclin T1 (P50750 whole entry): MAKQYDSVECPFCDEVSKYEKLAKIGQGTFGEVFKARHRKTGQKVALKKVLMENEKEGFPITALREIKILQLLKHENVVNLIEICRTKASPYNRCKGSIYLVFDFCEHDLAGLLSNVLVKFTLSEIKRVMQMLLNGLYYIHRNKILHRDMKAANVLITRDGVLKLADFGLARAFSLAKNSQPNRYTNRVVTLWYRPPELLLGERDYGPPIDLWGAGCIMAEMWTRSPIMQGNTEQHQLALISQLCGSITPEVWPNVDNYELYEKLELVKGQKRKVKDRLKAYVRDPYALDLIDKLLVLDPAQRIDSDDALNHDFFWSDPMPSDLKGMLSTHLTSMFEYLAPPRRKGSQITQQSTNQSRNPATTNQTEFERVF

MV4-11 [7] = assay: Antiproliferative activity against human MV4-11 cells assessed as growth inhibition after 72 hrs by resazurin assay; type: functional
MV4-11 [8] = assay: Induction of cell cycle arrest in human MV4-11 cells assessed as accumulation at sub-G1 phase at high dose after 72 hrs by propidium iodide staining based flow cytometry analysis; type: functional
MV4-11 [9] = assay: Induction of cell cycle arrest in human MV4-11 cells assessed as accumulation at G1 phase after 24 to 72 hrs by propidium iodide staining based flow cytometry analysis; type: functional; settings: dose 6-100 µM, time 24-72 hrs
[10] = target: T2, Cyclin-dependent kinase 2 (Homo sapiens, UniProt P24941); assay: Binding affinity to CDK2 (unknown origin) assessed as change in enthalpy by isothermal titration calorimetry
MV4-11 [11] = assay: Induction of cell cycle arrest in human MV4-11 cells assessed as reduction in S phase cells at high dose after 24 to 72 hrs by propidium iodide staining based flow cytometry analysis; type: functional; settings: time 24-72 hrs
MOLM-13 [12] = assay: Antiproliferative activity against human MOLM-13 cells assessed as growth inhibition after 72 hrs by resazurin assay; type: functional
[13] = target: T2, Cyclin-dependent kinase 2; assay: Binding affinity to CDK2 (unknown origin) assessed as change in entropy by isothermal titration calorimetry
[14] = target: T2, Cyclin-dependent kinase 2; assay: Binding affinity to CDK2 (unknown origin) by isothermal titration calorimetry
[15] = target: Cyclin-dependent kinase 4/cyclin D1 (Homo sapiens) (UniProt P11802+P24385); assay: Inhibition of CDK4/cyclin D1 (unknown origin) at 20 uM using peptide substrate in presence of [gamma33P]ATP by image analyser relative to control; type: protein-complex assay
[16] = target: T2, Cyclin-dependent kinase 2
Description: Binding affinity to CDK2 (unknown origin) assessed as gibbs free energy change by isothermal titration calorimetry

[17] = target: T1, Cyclin-dependent kinase 2/cyclin E1; assay: Inhibition of CDK2/cyclin E (unknown origin) expressed in baculovirus infected Sf9 cells using histone H1 as substrate in presence of [gamma33P]ATP by image analyser

## CCOC(=O)Cn1cc(C2CCCCC2)c2nccn2c1=O
MV4-11 [1]
  viability at 10 µM: 93.3%
[2]
  IC50: > 50 µM
K562
  viability at 10 µM: 110%
MOLM-13 [3]
  viability at 10 µM: 90.3%

## O=c1[nH]cc(C2=CCCC2)c2nccn12
MV4-11 [1]
  viability at 10 µM: 88.2%
[2]
  IC50: 4.9 µM
K562
  viability at 10 µM: 106%
MOLM-13 [3]
  viability at 10 µM: 93.4%

## O=c1n(CCO)cc(C2CCCCC2)c2nccn12
MV4-11 [1]
  viability at 10 µM: 88.4%
[2]
  IC50: 1.5 µM
K562
  viability at 10 µM: 103%
MOLM-13 [3]
  viability at 10 µM: 91.9%

## O=c1[nH]cc(/C=C/c2ccccc2)c2nccn12
MV4-11 [1]
  viability at 10 µM: 42.3%
[2]
  IC50: 17.8 µM
K562
  viability at 10 µM: 107%
MOLM-13 [3]
  viability at 10 µM: 55.6%

## NS(=O)(=O)c1ccc(Nc2nc(-c3cccc(-c4ccccc4)c3)c3nc[nH]c3n2)cc1
MV4-11 [1]
  viability at 10 µM: 62.8%
[4]
  IC50: 2870 nM
[2]
  IC50: 0.031 µM
[5]
  IC50: > 20 µM
K562
  viability at 10 µM: 94.5%
CDK2/Cyclin A2
  IC50: 22 nM
[6]
  IC50: 4.3 µM
CDK9/cyclin T1
  IC50: 9.4 µM
MOLM-13 [3]
  viability at 10 µM: 98.3%

## O=c1[nH]cc(C2=CCCCC2)c2nccn12
MV4-11 [1]
  viability at 10 µM: 80.6%
[2]
  IC50: 1.2 µM
K562
  viability at 10 µM: 101%
MOLM-13 [3]
  viability at 10 µM: 88.7%

## CC(=O)OCCCn1cc(C2CCCCC2)c2nccn2c1=O
MV4-11 [1]
  viability at 10 µM: 88.5%
[2]
  IC50: 7.7 µM
K562
  viability at 10 µM: 101%
MOLM-13 [3]
  viability at 10 µM: 93.8%

## O=c1[nH]cc(C2CCCCC2)c2nccn12
MV4-11 [7]
  GI50: 50 µM
MV4-11 [1]
  viability at 10 µM: 82.2%
MV4-11 [8]
  Activity: Active
[4]
  IC50: 2720 nM
MV4-11 [9]
  Activity: Dose-dependent effect
[2]
  IC50: 0.66 µM
[5]
  IC50: 14.3 µM
K562
  viability at 10 µM: 103%
CDK2/Cyclin A2
  IC50: 680 nM
[6]
  IC50: 4.3 µM
[10]
  deltaH: -11.4 kcal/mol
MV4-11 [11]
  Activity: Active
MOLM-13 [12]
  GI50: 50 µM
[13]
  -TdeltaS: 3.92 kcal/mol
[14]
  Kd: 4.1 µM
CDK9/cyclin T1
  IC50: 10 µM
[15]
  inhibition: 46%
MOLM-13 [3]
  viability at 10 µM: 84.8%
[16]
  deltaG: -7.48 kcal/mol

## O=c1[nH]cc(C2CCCCC2)c2nc(I)cn12
MV4-11 [1]
  viability at 10 µM: 40.1%
[2]
  IC50: 6.5 µM
K562
  viability at 10 µM: 101%
MOLM-13 [3]
  viability at 10 µM: 33.8%

## O=c1[nH]cc(C2CCCC2)c2nccn12
MV4-11 [1]
  viability at 10 µM: 90.2%
[2]
  IC50: 4 µM
K562
  viability at 10 µM: 105%
MOLM-13 [3]
  viability at 10 µM: 90.5%

## O=c1[nH]cc(-c2ccsc2)c2nccn12
MV4-11 [1]
  viability at 10 µM: 84.9%
[2]
  IC50: 8.9 µM
K562
  viability at 10 µM: 105%
MOLM-13 [3]
  viability at 10 µM: 87.8%

## O=C(O)Cn1cc(C2CCCCC2)c2nccn2c1=O
MV4-11 [1]
  viability at 10 µM: 94.7%
[2]
  IC50: > 50 µM
K562
  viability at 10 µM: 108%
MOLM-13 [3]
  viability at 10 µM: 90.3%

## O=c1[nH]cc(-c2ccccc2)c2nccn12
MV4-11 [1]
  viability at 10 µM: 89.2%
K562
  viability at 10 µM: 108%
[17]
  IC50: 6.6 µM
MOLM-13 [3]
  viability at 10 µM: 87.4%

## O=c1[nH]cc(-c2cccc(O)c2)c2nccn12
MV4-11 [1]
  viability at 10 µM: 82%
[2]
  IC50: 4.8 µM
K562
  viability at 10 µM: 104%
MOLM-13 [3]
  viability at 10 µM: 85.6%

## O=c1n(CCCO)cc(C2CCCCC2)c2nccn12
MV4-11 [1]
  viability at 10 µM: 91.7%
[2]
  IC50: 3 µM
K562
  viability at 10 µM: 104%
MOLM-13 [3]
  viability at 10 µM: 94.1%

## O=c1[nH]cc(-c2ccccc2)c2ncc(I)n12
MV4-11 [1]
  viability at 10 µM: 72.6%
[2]
  IC50: > 25 µM
K562
  viability at 10 µM: 109%
MOLM-13 [3]
  viability at 10 µM: 77.4%

## O=c1[nH]cc(-c2ccc(O)cc2Cl)c2nccn12
MV4-11 [1]
  viability at 10 µM: 85%
[2]
  IC50: 1.5 µM
K562
  viability at 10 µM: 105%
MOLM-13 [3]
  viability at 10 µM: 86.2%

## COc1ccc(-c2cn3c(=O)[nH]cc(-c4ccc(OC)cc4)c3n2)cc1
MV4-11 [1]
  viability at 10 µM: 52%
[2]
  IC50: > 25 µM
K562
  viability at 10 µM: 36.2%
MOLM-13 [3]
  viability at 10 µM: 15.3%

## O=c1[nH]cc(-c2ccc(-c3c[nH]c(=O)n4ccnc34)cc2)c2nccn12
MV4-11 [1]
  viability at 10 µM: 91.4%
[2]
  IC50: > 12.5 µM
K562
  viability at 10 µM: 111%
MOLM-13 [3]
  viability at 10 µM: 87.5%

## O=c1[nH]cc(-c2ccccc2)c2ncc(Br)n12
MV4-11 [1]
  viability at 10 µM: 78.6%
[2]
  IC50: > 50 µM
K562
  viability at 10 µM: 109%
MOLM-13 [3]
  viability at 10 µM: 82.7%

## O=c1[nH]cc(-c2ccccc2)c2nc(I)c(I)n12
MV4-11 [1]
  viability at 10 µM: 63.1%
[2]
  IC50: > 12.5 µM
K562
  viability at 10 µM: 113%
MOLM-13 [3]
  viability at 10 µM: 56.7%

## O=c1[nH]cc(-c2ccccc2)c2nc(-c3ccccc3)cn12
MV4-11 [1]
  viability at 10 µM: 84.1%
[2]
  IC50: > 50 µM
K562
  viability at 10 µM: 105%
MOLM-13 [3]
  viability at 10 µM: 83.5%

## O=c1[nH]cc(C2CCCCC2)c2nc(I)c(I)n12
MV4-11 [1]
  viability at 10 µM: 57%
[2]
  IC50: 4.6 µM
K562
  viability at 10 µM: 99.5%
MOLM-13 [3]
  viability at 10 µM: 53.9%

## Cn1cc(C2CCCCC2)c2nccn2c1=O
MV4-11 [1]
  viability at 10 µM: 89.3%
[2]
  IC50: 4.7 µM
K562
  viability at 10 µM: 105%
MOLM-13 [3]
  viability at 10 µM: 88.3%

## NS(=O)(=O)c1ccc(Nc2nc(OCC3CCCCC3)c3nc[nH]c3n2)cc1
MV4-11 [1]
  viability at 10 µM: 32.1%
K562
  viability at 10 µM: 103%
MOLM-13 [3]
  viability at 10 µM: 66%

## O=c1[nH]cc(-c2ccccc2)c2nc(Br)cn12
MV4-11 [1]
  viability at 10 µM: 77.2%
[2]
  IC50: 24.4 µM
K562
  viability at 10 µM: 105%
MOLM-13 [3]
  viability at 10 µM: 83.9%

## O=c1[nH]cc(-c2ccccc2)c2nc(I)cn12
MV4-11 [1]
  viability at 10 µM: 62.6%
[2]
  IC50: > 25 µM
K562
  viability at 10 µM: 110%
MOLM-13 [3]
  viability at 10 µM: 63.3%

## O=C1c2ccccc2C(=O)N1Cn1cc(C2CCCCC2)c2nccn2c1=O
MV4-11 [1]
  viability at 10 µM: 87.4%
[2]
  IC50: > 50 µM
K562
  viability at 10 µM: 107%
MOLM-13 [3]
  viability at 10 µM: 91.3%

## COc1ccc(-c2cn3c(=O)[nH]cc(F)c3n2)cc1
MV4-11 [1]
  viability at 10 µM: 42.9%
[2]
  IC50: > 25 µM
K562
  viability at 10 µM: 109%
MOLM-13 [3]
  viability at 10 µM: 51.8%

## O=c1[nH]cc(C2CCCCC2)c2ncc(I)n12
MV4-11 [1]
  viability at 10 µM: 78.5%
[2]
  IC50: 14.2 µM
K562
  viability at 10 µM: 100%
MOLM-13 [3]
  viability at 10 µM: 70.7%
